Measurements taken from patent publication US10611764B2 (Wisconsin Alumni Research Foundation, priority 2017, dated 2020).
Numbering of substitutions follows the chain as printed.

Columns and labels:
[1] = target: T1, mAHR Q377A mutant (Mus musculus, UniProt P30561, Q377A); test: Luciferase reporter gene assay, mutant mAHR Q377A in COS-1 cells; format: cell-based; details: relative to WT mAHR
T1 construct: expressed in transfected cells; host or cells: COS-1
T1 sequence (P30561 10-805 Q377A limits assumed): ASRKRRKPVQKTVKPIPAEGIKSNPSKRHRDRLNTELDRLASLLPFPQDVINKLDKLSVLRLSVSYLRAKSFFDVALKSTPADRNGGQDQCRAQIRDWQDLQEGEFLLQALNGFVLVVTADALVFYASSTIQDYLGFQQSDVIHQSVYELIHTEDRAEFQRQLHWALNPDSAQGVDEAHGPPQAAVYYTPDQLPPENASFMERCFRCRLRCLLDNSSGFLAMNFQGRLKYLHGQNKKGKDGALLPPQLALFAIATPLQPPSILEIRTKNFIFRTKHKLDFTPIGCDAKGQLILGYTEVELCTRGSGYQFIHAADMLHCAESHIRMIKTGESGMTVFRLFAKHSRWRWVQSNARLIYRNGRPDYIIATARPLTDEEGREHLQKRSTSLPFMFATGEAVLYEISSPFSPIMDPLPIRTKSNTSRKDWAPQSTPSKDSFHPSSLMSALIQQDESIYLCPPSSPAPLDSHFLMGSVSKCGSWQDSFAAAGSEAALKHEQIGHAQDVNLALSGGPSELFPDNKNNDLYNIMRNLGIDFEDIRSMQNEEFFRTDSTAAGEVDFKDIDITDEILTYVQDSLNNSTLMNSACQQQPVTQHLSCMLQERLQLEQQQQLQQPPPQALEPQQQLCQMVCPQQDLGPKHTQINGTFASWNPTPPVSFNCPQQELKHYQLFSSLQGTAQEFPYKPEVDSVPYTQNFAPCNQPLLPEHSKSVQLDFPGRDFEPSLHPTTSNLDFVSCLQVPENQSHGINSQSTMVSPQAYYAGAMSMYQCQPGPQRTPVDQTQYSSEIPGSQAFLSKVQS

[2] = test system: mAHR H285A mutant; test: Luciferase reporter gene assay, mutant mAHR H285A in COS-1 cells; format: cell-based, mouse; details: relative to WT mAHR
[3] = test system: Salmonella typhimurium tester strains (TA97a, TA98, TA100, and TA1535) and Escherichia coli strain (WP2 uvrA pKM101); test: Ames screening; details: with and without S9, 7.8-250 ng/well
Procedure: The Ames screening detects both frameshift and base-pair substitution mutations using 4 Salmonella typhimurium tester strains (TA97a, TA98, TA100, and TA1535) and 1 Escherichia coli strain (WP2 uvrA pKM101). Strains TA97a and TA98 detect frameshift mutations, and TA100, TA1535, and WP2 uvrA pKM101 detect base-pair substitution mutations. This scaled-down Ames test uses minimal compound, is conducted with and without metabolic activation (S9 fraction), and uses multiwell plates. The Ames screen for TEACOP 270 was tested in duplicate with strains TA97a, TA98, TA100, TA1535, and WP2 uvrA pKM101 in the presence and absence of a metabolic activation system (Aroclor™ 1254 induced rat liver S9 microsomal fraction) at 7.8, 15.5, 31, 62.5, 125, and 250 ng/well. Positive control compounds were used at 4 different concentrations to ensure the assay system was sensitive to known mutagenic compounds. DMSO was used as the vehicle control.

[4] = Solubility in commonly used (NMR) solvents; format: physicochemical
[5] = target: T2, mouse AHR (mAHR B1-allele) (Mus musculus, UniProt P30561, M589L/N533S/P471L); test: cell-based
T2 sequence (P30561 10-805 P471L/N533S/M589L): T1 sequence (P30561 10-805 Q377A limits assumed) with A368Q, P462L, N524S, M580L
Procedure: The wild type and mutant mAHR were cloned into the XhoI/SalI cloning sites of pTARGET (Promega, Madison, Wis.) using routine PCR and molecular cloning procedures using the pSport-mAHR plasmid (PL65) as template (Dolwick, Swanson et al. 1993). For recombinant expression of mAHR, COS-1 cells were cultured in 6 cm dishes and transfected with 2 μg of wild-type or mutant mAHR expression vector. Twenty-four hours after transfection, cells were collected, and the whole cell extracts were prepared by celLytic M reagent (Sigma-Aldrich, St Louis, Mo.). 100 μg of whole cell extract was analyzed by western blot using antibodies that specifically recognize the mAHR (bear-2) and β-actin (Sigma).
COS-1 cells were cultured in 96-well plates and transiently transfected with pTarget vector containing the expression cassette of wild-type or mutant mAHR, or empty vector (3 ng), together with pGudLu6.1 DREs-driven luciferase reporter vector (14 ng) (Han, Nagy et al. 2004) and TK-renilla luciferase vector (3 ng) (Invitrogen, Carlsbad Calif.). […] The expressed luciferase activity was measured by ENSPIRE plate reader (Perkin Elmer, USA). Data analysis and simulation of dose response curves were performed using GraphPad Prism 5 (GraphPad software Inc., La Jolla, Calif.). The experiments were performed in triplicate and repeated at least three times. Representative results of one repeat are shown as mean±SEM.

C1=Cc2c3ccccc3nc3nc4ccccc4c(c23)N1 [Compound 4]
effect of Q377A mutation on AHR induction activity [1]: barely affected
effect of H285A mutation on AHR induction activity [2]: drastically affected
mutagenicity (Ames test) [3]: No mutagenicity is detected
solubility in CDCl3 ([4]; TFA salt): good solubility
solubility ([4]; free base form): poor solubility
solubility in commonly used solvents (CDCl3, CD3OD, DMSO-d6, etc) ([4]; isolated material): very poor solubility
EC50 [5]: 0.378 nM
fold lower measured activity than Compound 4 ([5]; purified sample largely contaminated by lipids, FIG. 5c): more than 10 fold
